Legend:
[1] = system: M12; experiment: Cell viability assay; type: cell-based; conditions: M12 cells, 24 hrs, read-out: Inhibition of cancer cell proliferation IC50
Method: (§1) Cells were cultured at a density of 5×10^4 (U937) or 1×10^4 (PC-3, DU145, M12, HT29) cells per well in flat bottomed 96-well plates and treated with various concentrations of test compound at 37° C. (5% CO2). After 24 h, 20 μL of CellTiter 96® Aqueous One Solution Reagent (Promega, Madison, Wis.) was added to each well according to the manufacturer's instructions. After 1 hour, the cell viability was determined by measuring the absorbance at 490 nm using a micro-plate reader.

[2] = system: U937; experiment: Cell viability assay; type: cell-based; conditions: Homo sapiens, U-937, U937 cells, 24 hrs, read-out: Inhibition of cancer cell proliferation IC50
Method: as §1

[3] = system: DU145; experiment: Cell viability assay; type: cell-based; conditions: Homo sapiens, DU-145, DU145 cells, 24 hrs, read-out: Inhibition of cancer cell proliferation IC50
Method: as §1

[4] = system: PC-3; experiment: Cell viability assay; type: cell-based; conditions: Homo sapiens, PC-3 cells, 24 hrs, read-out: Inhibition of cancer cell proliferation IC50
Method: as §1

[5] = Toxicity studies in mice; type: in vivo; conditions: B6C3F1 mice, 20 mg/kg orally, 21 days
Method: Female B6C3F1 mice (12/group) were given example 4 orally at 30 mg/kg, 50 mg/kg and 80 mg/kg dosage or example 820 mg/kg orally for 21 days.

[6] = system: p-MEK; experiment: Western blot analysis of p-MEK in U937 cells; type: cell-based; conditions: PMA/TPA 200 nM stimulation
Method: FIG. 1. U937 cells were treated with Formula II prepared as described in Example 4 [i.e. 3-(2-aminoethyl)-5-(3-cyclohexylpropylidene)thiazolidine-2,4-dione] for 1 h, then stimulated with PMA (200 nM) for 30 min. Lysates were analyzed for p-Akt, p-MEK, p-ERK and α-tubulin by western blot analysis.
Cells (5×10^5 per ml) were treated with various concentrations of test compound at 37° C. (5% CO2) for 3 hrs, then stimulated with TPA at a final concentration of 200 nM for 20 min. Samples from whole-cell pellets were prepared and 30 μg protein for each condition was subjected to SDS-PAGE, transferred onto a PVDF membrane, and blocked with 5% fat-free milk for 30 min. The membrane is probed with primary antibodies overnight at 4° C. followed by incubation with horseradish peroxidase-labeled anti-mouse IgG (1:5000, BD Biosciecne). The immunoreactive bands are detected by chemiluminescence methods (Pierce) and visualized on Kodak Omat film. The following primary antibodies were used: phospho-p44/42 MAPK (ERK1/2, Thr202/Tyr204), p44/42 MAPK, phospho-p90RSK (Thr359/Ser363), RSK1/RSK2/RSK3 (Cell Signaling). Blots were reprobed with antibodies against α-tubulin to ensure equal loading and transfer of proteins.

| IC50 [2] [µM] | IC50 [3] [µM] | IC50 [4] [µM] | SMILES | IC50 [1] [µM] | effects on general health and body weight [5] | p-MEK level (western blot) [6] |
| --- | --- | --- | --- | --- | --- | --- |
| 12.2 | 30.8 | 14.6 | NCCN1C(=O)S/C(=C\CCc2ccccc2)C1=O [Example 8, 3-(2-aminoethyl)-5-(3-phenylpropylidene)thiazolidine-2,4-dione] | 14.8 | no effects on general health and body weight were observed | – |
| – | – | – | O=C(NOCC1CC1)c1ccc(F)c(F)c1Nc1ccc(I)cc1Cl [PD184352, reference compound] | – | – | dose-dependent increase in the p-MEK levels |

Reference: patent US20110166191A1, “3-(2-amino-ethyl)-5-(3-cyclohexyl-propylidene)-thiazolidine-2,4-dione and its derivatives as multiple signaling pathway inhibitors and for the treatment of cancer” (priority 2010, published 2011)
